Results published in patent US9227971B2, “Pyrazolo[1,5-a]pyrimidine compounds as mTOR inhibitors” (Merck Sharp & Dohme Corp., priority 2010, dated 2016).
Read-outs that look alike come from different tables or passages of the source.

Legend:
[1] = system: phosphorylated AKT Ser473 (pAKT S473), mTORC2 activity, PC3 cells; assay: mTOR target engagement assay, immunofluorescent cell-based, pAKT S473 readout (mTORC2 activity); settings: PC3 cells
How it was run: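 After blocking, cells were stained overnight at 4 °C with anti-pAKT S473 antibody, then a fluorescent secondary; inhibition was read as reduced fluorescence intensity.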

[2] = system: phosphorylated 4E-BP1 Thr37/46 (p4E-BP1 Thr37/46), mTORC1 activity, PC3 cells; assay: mTOR target engagement assay, immunofluorescent cell-based, p4E-BP1 Thr37/46 readout (mTORC1 activity); settings: PC3 cells, read-out: p4E-BP1 Thr37/46 IC50
How it was run: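 Seed PC3 cells overnight; treat with compound dilutions for ninety minutes at 37° C; fix with glyoxal and block; stain with anti-p4E-BP1 Thr37/46 overnight at 4° C, then fluorescent secondary; read fluorescence and fit IC50 against DMSO-only controls.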

Row | Structure (SMILES) | IC50 ([1]; Homo sapiens, PC-3, Table 3-1) [nM] | IC50 ([2]; Homo sapiens, PC-3, Table 3-1) [nM] | IC50 ([1]; Table 3-1) [nM] | IC50 ([2]; Table 3-1) [nM]
1 | CS(=O)(=O)c1c([C@@H]2C[C@H]3CC[C@@H](C2)N3C(N)=O)nc2c(-c3ccc(-c4ccccc4F)nc3)cnn2c1N [Compound 3.131, (1R,3s,5S)-3-(7-amino-3-(6-(2-fluorophenyl)pyridin-3-yl)-6-(methylsulfonyl)pyrazolo[1,5-a]pyrimidin-5-yl)-8-azabicyclo[3.2.1]octane-8-carboxamide] | 1 to 100 | 1 to 100 |  | 
2 | CS(=O)(=O)c1c([C@@H]2C[C@H]3CC[C@@H](C2)N3C(=O)CO)nc2c(-c3ccc(-c4ccccc4F)nc3)cnn2c1N [Compound 3.132, 1-((1R,3a,5S)-3-(7-amino-3-(6-(2-fluorophenyl)pyridin-3-yl)-6-(methylsulfonyl)pyrazolo[1,5-a]pyrimidin-5-yl)-8-azabicyclo[3.2.1]octan-8-yl)-2-hydroxyethanone] | 1 to 100 | 100 to 1000 |  | 
3 | Cc1nnc(C(=O)N2[C@@H]3CC[C@H]2C[C@H](c2nc4c(-c5ccc(-c6ccccc6F)nc5)cnn4c(N)c2S(C)(=O)=O)C3)[nH]1 [Compound 3.133, ((1R,3s,5S)-3-(7-amino-3-(6-(2-fluorophenyl)pyridin-3-yl)-6-(methylsulfonyl)pyrazolo[1,5-a]pyrimidin-5-yl)-8-azabicyclo[3.2.1]octan-8-yl)(5-methyl-4H-1,2,4-triazol-3-yl)methanone] | 1 to 100 | 1 to 100 |  | 
4 | CS(=O)(=O)c1c([C@@H]2C[C@H]3CC[C@@H](C2)N3C(=O)c2cc(N)n[nH]2)nc2c(-c3ccc(-c4ccccc4F)nc3)cnn2c1N [Compound 3.134] |  |  | 1 to 100 | 1 to 100
5 | CS(=O)(=O)c1c([C@@H]2C[C@H]3CC[C@@H](C2)N3C(=O)c2ccn[nH]2)nc2c(-c3ccc(-c4ccccc4F)nc3)cnn2c1N [Compound 3.135, ((1R,3s,5S)-3-(7-amino-3-(6-(2-fluorophenyl)pyridin-3-yl)-6-(methylsulfonyl)pyrazolo[1,5-a]pyrimidin-5-yl)-8-azabicyclo[3.2.1]octan-8-yl)(1H-pyrazol-5-yl)methanone] | 1 to 100 | 1 to 100 |  | 
6 | CS(=O)(=O)c1c([C@@H]2C[C@H]3CC[C@@H](C2)N3C(=O)c2nnc[nH]2)nc2c(-c3cnc(-c4ccccc4)nc3)cnn2c1N [Compound 3.136, ((1R,3s,5S)-3-(7-amino-6-(methylsulfonyl)-3-(2-phenylpyrimidin-5-yl)pyrazolo[1,5-a]pyrimidin-5-yl)-8-azabicyclo[3.2.1]octan-8-yl)(4H-1,2,4-triazol-3-yl)methanone] | 1 to 100 | 1 to 100 |  | 
7 | Cc1nc(N)ncc1C(=O)N1[C@@H]2CC[C@H]1C[C@H](c1nc3c(-c4ccc(-c5ccccc5)nc4)cnn3c(N)c1S(C)(=O)=O)C2 [Compound 3.137, (2-amino-4-methylpyrimidin-5-yl)((1R,3a,5S)-3-(7-amino-6-(methylsulfonyl)-3-(6-phenylpyridin-3-yl)pyrazolo[1,5-a]pyrimidin-5-yl)-8-azabicyclo[3.2.1]octan-8-yl)methanone] | 1000 to 10000 | 1000 to 10000 |  | 
8 | CS(=O)(=O)c1c([C@@H]2C[C@H]3CC[C@@H](C2)N3C(=O)c2coc(=O)[nH]2)nc2c(-c3ccc(-c4ccccc4)nc3)cnn2c1N [Compound 3.138, 4-((1R,3s,5S)-3-(7-amino-6-(methylsulfonyl)-3-(6-phenylpyridin-3-yl)pyrazolo[1,5-a]pyrimidin-5-yl)-8-azabicyclo[3.2.1]octane-8-carbonyl)oxazol-2(3H)-one] | 100 to 1000 | 100 to 1000 |  | 
9 | CS(=O)(=O)c1c([C@@H]2C[C@H]3CC[C@@H](C2)N3C(=O)c2c[nH]c(=O)[nH]2)nc2c(-c3ccc(-c4ccccc4)nc3)cnn2c1N [Compound 3.139, 4-((1R,3s,5S)-3-(7-amino-6-(methylsulfonyl)-3-(6-phenylpyridin-3-yl)pyrazolo[1,5-a]pyrimidin-5-yl)-8-azabicyclo[3.2.1]octane-8-carbonyl)-1H-imidazol-2(3H)-one] | 1 to 100 | 100 to 1000 |  | 
